Tests used:
Assay in all cases: relative viability (nuclei count vs DMSO), 5 days (fraction); higher = more cells survive
[1] = compound: CS(=O)(=O)N1CCN(Cc2cc3nc(-c4cccc5[nH]ncc45)nc(N4CCOCC4)c3s2)CC1 [Pictilisib] + CC(C)C[C@H](NC(=O)[C@H](Cc1ccccc1)NC(=O)c1cnccn1)B(O)O [Bortezomib] (partner 0.002 µM)
Outline: (§1)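 Five library-drug doses in √10 steps were combined with a fixed anchor-drug dose, or a single drug was given alone, by pin tool to lung cancer cell lines in 1536-well plates the day after seeding. Nuclei were stained and counted after 5 days. Relative viability is the nuclei count in treated wells over that in vehicle wells, taken as the median of duplicate plates.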

[2] = compound: CS(=O)(=O)N1CCN(Cc2cc3nc(-c4cccc5[nH]ncc45)nc(N4CCOCC4)c3s2)CC1 [Pictilisib] + CCNC(=O)c1noc(-c2cc(C(C)C)c(O)cc2O)c1-c1ccc(CN2CCOCC2)cc1 [Luminespib] (partner 0.01 µM)
Outline: as §1

[3] = compound: NC1(c2ccc(-c3nc4ccn5c(=O)[nH]nc5c4cc3-c3ccccc3)cc2)CCC1 [MK-2206] + COc1cccc2cc(-c3nc([C@H]4CC[C@H](C(=O)O)CC4)n4ncnc(N)c34)[nH]c12 [OSI-027] (partner 0.5 µM)
Outline: as §1

[4] = compound: NC1(c2ccc(-c3nc4ccn5c(=O)[nH]nc5c4cc3-c3ccccc3)cc2)CCC1 [MK-2206] + Cc1cc(Nc2cc(N3CCN(C)CC3)nc(Sc3ccc(NC(=O)C4CC4)cc3)n2)n[nH]1 [Tozasertib] (partner 0.1 µM)
Outline: as §1

[5] = compound: NC1(c2ccc(-c3nc4ccn5c(=O)[nH]nc5c4cc3-c3ccccc3)cc2)CCC1 [MK-2206] + Cc1nc(NC(=O)N2CCC[C@H]2C(N)=O)sc1-c1ccnc(C(C)(C)C(F)(F)F)c1 [Alpelisib] (partner 2 µM)
Outline: as §1

| Cell Line | relative viability ([1]; first compound 0.02 µM) | relative viability ([1]; first compound 0.06325 µM) | relative viability ([1]; first compound 0.6325 µM) | relative viability ([1]; first compound 2 µM) | relative viability ([2]; first compound 0.02 µM) | relative viability ([2]; first compound 0.06325 µM) | relative viability ([2]; first compound 0.6325 µM) | relative viability ([2]; first compound 2 µM) | relative viability ([3]; first compound 0.01 µM) | relative viability ([3]; first compound 0.03162 µM) | relative viability ([3]; first compound 0.3162 µM) | relative viability ([3]; first compound 1 µM) | relative viability ([4]; first compound 0.01 µM) | relative viability ([4]; first compound 0.03162 µM) | relative viability ([4]; first compound 0.3162 µM) | relative viability ([4]; first compound 1 µM) | relative viability ([5]; first compound 0.01 µM) | relative viability ([5]; first compound 0.03162 µM) | relative viability ([5]; first compound 0.3162 µM) | relative viability ([5]; first compound 1 µM) |
| --- | --- | --- | --- | --- | --- | --- | --- | --- | --- | --- | --- | --- | --- | --- | --- | --- | --- | --- | --- | --- |
| NCI-H647 | 1.19 | 1.07 | 0.965 | 0.513 | 0.124 | 0.151 | 0.265 | 0.185 | 0.573 | 0.584 | 0.469 | 0.641 | 0.316 | 0.377 | 0.289 | 0.233 | 1.39 | 1.24 | 1.07 | 0.851 |
| BEN | 0.811 | 0.941 | 0.762 | 0.489 | 0.54 | 0.269 | 0.275 | 0.438 | 0.3 | 0.301 | 0.271 | 0.297 | 0.554 | 0.621 | 0.416 | 0.443 | 0.998 | 1.11 | 1.08 | 1.1 |
| 201T | 1.12 | 1.1 | 1.07 | 0.993 | 1.04 | 1 | 0.869 | 0.576 | 0.772 | 0.766 | – | 0.494 | 0.962 | 0.931 | 0.98 | 0.948 | 0.97 | 1.05 | 0.958 | 0.958 |
| LC-2-ad | 1.05 | 1 | 0.633 | 0.56 | 1.17 | 1.07 | 0.757 | 0.607 | 0.76 | 0.837 | 0.592 | 0.383 | 0.42 | 0.484 | 0.525 | 0.44 | 0.888 | 0.847 | 0.802 | 0.793 |
| LCLC-97TM1 | 0.807 | 0.998 | 0.374 | 0.184 | 0.751 | 0.867 | 0.442 | 0.224 | 0.698 | 0.498 | 0.249 | 0.361 | 0.26 | 0.382 | 0.194 | 0.223 | 0.316 | 0.261 | 0.185 | 0.204 |
| NCI-H1915 | 0.981 | 1.03 | 0.606 | 0.9 | 0.784 | 0.864 | 0.699 | 0.642 | 0.646 | 0.693 | 0.606 | 0.496 | 0.486 | 0.431 | 0.432 | 0.394 | 1.05 | 1.1 | 1.04 | 1.08 |
| NCI-H3122 | 0.99 | 1.05 | 1.04 | 0.601 | 0.0804 | 0.107 | 0.0795 | 0.0927 | 0.875 | 0.963 | 0.424 | 0.163 | 0.366 | 0.39 | 0.469 | 0.169 | 0.737 | 0.659 | 0.677 | 0.636 |
| NCI-H1993 | 0.984 | 1.04 | 0.601 | 0.448 | 0.73 | 0.634 | 0.55 | 0.523 | 0.493 | 0.579 | 0.469 | 0.595 | 0.611 | 0.542 | 0.541 | 0.525 | 0.73 | 0.668 | 0.663 | 0.652 |
| NCI-H2405 | 1.03 | 0.961 | 0.919 | 0.651 | 0.694 | 0.611 | 0.416 | 0.235 | 0.661 | 0.641 | 0.56 | 0.452 | 0.818 | 0.799 | 0.662 | 0.635 | 0.762 | 0.877 | 0.728 | 0.673 |
| NCI-H661 | 0.771 | 0.738 | 0.616 | 0.258 | 0.969 | 0.938 | 0.953 | 0.813 | 0.729 | 0.659 | 0.563 | 0.584 | 0.377 | 0.354 | 0.373 | 0.364 | 0.745 | 1.07 | 0.688 | 0.473 |

Reference: the supplement of paper PMC10307832
